Source: patent US20120021434A1, “METHOD FOR TREATING B CELL REGULATED AUTOIMMUNE DISORDERS” (Synta Pharmaceuticals Corp., priority 2005, published 2012)

Experiments:
Assay type in all cases: cell-based
[1] = tested on: p65; assay: Western blot of THP-1 nuclear extracts: p65; conditions: IFN-γ plus LPS or IFN-γ plus SAC
Experimental: The THP-1 cell, Jurkat cell and RAW264.7 cell line were obtained from American Type Culture Collection (Manassas, Va.). The THP-1 Jurkat cells were cultured in RPMI 1640 (ATCC, Manassas, Va.), supplemented with 10% FCS (ATCC, Manassas, Va.), and 1% penicillin/Streptomycin (Gibco-BRL, New York, N.Y.). The RAW264.7 cells were cultured in DMEM (ATCC, Manassas, Va.) supplemented with 10% FCS (ATCC, Manassas, Va.), and 1% penicillin/Streptomycin (Gibco-BRL, New York, N.Y.). The cells were stimulated with human or murine recombinant IFNγ (100 ng/ml) for 10 h followed by LPS (1 μg/ml) or SAC (0.025%) CpG ([…]) in the presence or absence of Compound 50 at different concentrations for an additional incubation.
THP-1 cells were suspended in 20 volumes of buffer A containing 10 mM KCl, 10 mM HEPES (pH 7.9), 1 mM MgCl2, 1 mM dithiothreitol (DTT), 0.1% Nonidet p40 (NP-40), and 0.5 mM phenylmethylsulfonyl fluoride (PMSF) and homogenized and centrifuged at 10,000 rpm at 4C afor 5 min. […]
Of the transcription factors that have been analyzed, two factors, ICSBP and c-Rel, seem to be affected by Compound 4/Compound 50 treatment. […]

[2] = tested on: IκBβ; assay: Inducible degradation of IκBβ (Western blot and FACS); conditions: IFN-γ/LPS or IFN-γ/SAC, 500 nM, 30 min and 2 hrs
Experimental: IκB degradation is one of the steps in the signaling pathway of NF-κB dependent genes. The activity of Compound 50 in inducible degradation of IκBα and IκBβ was investigated in THP-1 cells using Western blot and FACS analysis. […] Similar results were observed from the Compound 50 pre-treatment samples in which Compound 50 was added 30 min before stimulation.

[3] = tested on: IL-12 promoter (p40 expression); assay: IL-12 promoter-Luc reporter with ICSBP over-expression; conditions: co-transfection of ICSBP construct with IL-12 promoter-Luc reporter
Excerpt: ICSBP, whose expression was reduced by Compound 50, was over-expressed using co-transfection with the IL-12 promoter-Luc report system. The over-expression construct of ICSBP was generated by PCR from cDNA of human PBMC using primers as follow: ICSBP-exp-F: 5′-[…]-3′ (SEQ ID NO:1) and ICSBP-exp-R: 5′-[…]-3′ (SEQ ID NO:2), the resulting PCR products was ligated to pCI vector (Promega).

[4] = tested on: NF-κB p65; assay: Immunofluorescence of p65 nuclear accumulation in LPS-stimulated RAW264.7 cells; conditions: RAW264.7, LPS 5 μg/mL, 100 nM, 4 hours
Experimental: We next examined whether compound 50 can block the accumulation of c-Rel in the nucleus of cells induced by LPS (FIG. 2). RAW264.7 cells cultured in DMEM with 10% BCS were split and seeded into 4-well chambered slides at 80,000 cells/well density. The cells were then treated with DMSO, Compound 50 (100 nM), LPS (Sigma, 5 μg/mL), LPS (5 μg/mL)+Compound 50 (100 nM) for 4 hours and fixed with 3% paraformaldehyde solution (1×PBS) after 1× quick rinse with 1×PBS. Fixed cells were permeablized with 0.2% TX100 and immunostained with anti-cRel antibody (SC70, Santa Cruz, 1:200 dilution) or anti-NF-κB p65 antibody (SC109, Santa Cruz, 1:100 dilution), and subsequently stained with Alexa Fluor 488 Goat-anti-Rabbit secondary antibody and DAPI (Molecular Probes, 1.1 μM). Images were obtained with CoolSNAP monochrome CCD camera on a Nikon inverted microscope TE300 using identical imaging parameters and were processed identically with Photoshop CS software. As observed previously, c-Rel localized to the cytoplasm in DMSO-treated cells and to the nucleus in LPS-treated cells. […] We also examined whether Compound 50 blocks the nuclear accumulation of another NF-κB/Rel family member, p65, in LPS-stimulated RAW cells (FIG. 3). As observed for c-Rel, p65 was localized to the cytoplasm in DMSO and Compound 50-treated cells and to the nucleus in LPS-stimulated cells. […]

Cc1cccc(/C=N/Nc2cc(N3CCOCC3)nc(OCCc3ccccn3)n2)c1 [Compound 50, N-(3-Methyl-benzylidene)-N′-[6-morpholin-4-yl-2-(2-pyridin-2-yl-ethoxy)-pyrimidin-4-yl]-hydrazine]
nuclear p65 protein [1]: increased | amount of IκBβ in the cytoplasm, with vs without compound [2]: no significant difference | inhibition of p40 expression under ICSBP over-expression [3]: decreased the inhibition | LPS-induced p65 nuclear accumulation [4]: not blocked
